Experimental data: patent US20030130272A1, “Anthracene derivatives as anti-cancer agents” (priority 1999, published 2003)
Counter-ions that a name gives are not always drawn.

Test system: MAC 15A cells
Test: In vitro activity against MAC 15A adenocarcinoma (MTT assay)
Type: cell-based
Settings: MAC15A colon adenocarcinoma, 96 hours continuous exposure
Method: MAC 15A cells were grown in RPMI 1640 medium supplemented with 10% foetal calf serum containing a 1% antibiotic mixture under standard tissue culture conditions and were maintained at 37° C. in a humidified atmosphere of 5% CO2 in air. Cells were harvested from a stock culture in exponential growth phase and plated in 96-well flat-bottomed plates to achieve a final density of 2×10^3 cells per well. After 2 hours incubation medium was replaced with either fresh medium containing 0.5% DMSO (control) or medium containing test compound dissolved in DMSO at a concentrations from 10 mM to 1 nM. Chemosensitivity was assessed using MTT assay by the method of Plumb et al Cancer Research 49 (1989) 4435-4440.
Following 96 hours continuous exposure to drug at 37° C. cells were incubated with fresh drug-free medium immediately prior to addition of MTT solution (5 mg/ml). Medium and MTT were removed after 4 hours and 150 μl of DMSO was added. For each plate the absorbance of the resulting solution was measured at the analytical wavelength 550 nm for formnazan product, using a Labsystem Mutiskan. IC50 values were obtained from growth curves of drug concentration against % survival and are expressed in μm.
In vitro Cytotoxicity of Spacer Limked Anthraquinone Peptide Conjugates on MAC15A Colon Adenocarcinoma

Row | Structure (SMILES) | IC50
1 | C[C@H](N)C(=O)OC[C@@H]1CCCN1c1cccc2c1C(=O)c1ccccc1C2=O [Example 13, [(2S)]-1-(9,10-dioxoanthryl)pyrrolidin-2-yl]methyl (2S)-2-aminopropanoate trifluoroacetate salt] | 22 µM
2 | C[C@H](N)C(=O)N1CCN(c2cccc3c2C(=O)c2cccc(N4CCN(C(=O)[C@H](C)N)CC4)c2C3=O)CC1 [Example 23, 1,5-bis(1-L-alanylpiperazinyl)anthracene-9,10-dione trifluoroacetate salt] | 15 µM
3 | NCC(=O)NC1CCC(Nc2cccc3c2C(=O)c2ccccc2C3=O)CC1 (stereo not drawn) [Example 30, 2-amino-N-{4-[(9,10-dioxoanthryl)amino]cyclohexyl}acetamide trifluoroacetate salt] | 6 µM
4 | C[C@H](N)C(=O)NC1CCC(Nc2cccc3c2C(=O)c2ccccc2C3=O)CC1 (stereo partly drawn) [Example 32, (2S)-2-amino-N-{4-[(9,10-dioxoanthryl)amino]cyclohexyl}propanamide trifluoroacetate salt] | 4.4 µM
5 | C[C@@H](N)C(=O)NC1CCC(Nc2cccc3c2C(=O)c2ccccc2C3=O)CC1 (stereo partly drawn) [Example 34, (2R)-2-amino-N-{4-[(9,10-dioxoanthryl)amino]cyclohexyl}propanamide trifluoroacetate salt] | 3.9 µM
6 | CC(C)[C@H](N)C(=O)NC1CCC(Nc2cccc3c2C(=O)c2ccccc2C3=O)CC1 (stereo partly drawn) [Example 36, (2S)-2-amino-N-{4-[(9,10-dioxoanthryl)amino]cyclohexyl}-3-methylbutanamide trifluoroacetate salt] | 4.5 µM
7 | CC(C)[C@@H](N)C(=O)NC1CCC(Nc2cccc3c2C(=O)c2ccccc2C3=O)CC1 (stereo partly drawn) [Example 38, (2R)-2-amino-N-{4-[(9,10-dioxoanthryl)amino]cyclohexyl}-3-methylbutanamide trifluoroacetate salt] | 4.2 µM
8 | O=C1c2ccccc2C(=O)c2c(NC3CCC(NC(=O)[C@@H]4CCCN4)CC3)cccc21 (stereo partly drawn) [Example 40, ((2S)pyrrolidin-2-yl)-N-{4-[(9,10-dioxoanthryl)amino]cyclohexyl}-carboxamide trifluoroacetate salt] | 4.2 µM
9 | N[C@@H](Cc1ccccc1Cl)C(=O)NC1CCC(Nc2cccc3c2C(=O)c2ccccc2C3=O)CC1 (stereo partly drawn) [Example 44, (2S)-2-amino-N-{4-[(9,10-dioxoanthryl)amino]cyclohexyl}-3-(2-chlorophenyl)propanamide trifluoroacetate salt] | 3 µM
10 | N[C@H](Cc1ccccc1Cl)C(=O)NC1CCC(Nc2cccc3c2C(=O)c2ccccc2C3=O)CC1 (stereo partly drawn) [Example 46, (2R)-2-amino-N-{4-[(9,10-dioxoanthryl)amino]cyclohexyl}-3-(2-chloro-phenyl)propanamide trifluoroacetate salt] | 4.1 µM
11 | C[C@@H](N)C(=O)NCCCN1CCN(CCCNc2cccc3c2C(=O)c2ccccc2C3=O)CC1 [Example 53, (2R)-2-amino-N-[3-(4-{3-[(9,10-dioxoanthryl)amino]propyl}-piperazinyl)propyl]propanamide trifluoroacetate salt] | 4.9 µM
12 | N[C@H](Cc1ccccc1)C(=O)NCCCN1CCN(CCCNc2cccc3c2C(=O)c2ccccc2C3=O)CC1 [Example 61, (2R)-2-amino-N-[3-(4-{3-[(9,10-dioxoanthryl)amino]propyl}-piperazinyl)propyl]-3-phenylpropanamide trifluoroacetate salt] | 3.8 µM
13 | NCCC(=O)NC1CCCCC1Nc1cccc2c1C(=O)c1ccccc1C2=O (stereo not drawn) [Example 68, 3-amino-N-{2-[(9,10-dioxoanthryl)amino]cyclohexyl}propanamide trifluoroacetate salt] | 6.2 µM
14 | NCC(=O)Nc1ccc(Nc2cccc3c2C(=O)c2ccccc2C3=O)cc1 [Example 70, 2-amino-N-{4-[(9,10-dioxoanthryl)amino]phenyl}acetamide trifluoroacetate salt] | 2.2 µM
15 | NCCCC[C@H](N)C(=O)N1CCN(c2cccc3c2C(=O)c2ccccc2C3=O)CC1 [Example 79, 1-[4-((2S)-2-6-diaminohexanoyl)piperazinyl]anthracene-9,10-dione bis trifluoroacetate salt] | 28 µM
